Test results reported in PMC12066179, “Naphthyl-Substituted Ruthenium(II)–Arene Complexes: Exploring the Impact of Binding Modes on Cytotoxicity in Cancer and Normal Cell Lines” (Bioinorganic Chemistry and Applications, 2025).

How the values were obtained:
[1] = tested on: MCF-7 (breast cancer) cell line; experiment: MTT cell viability assay, MCF-7; assay type: cell-based
Experimental: (§1) The MTT assay, which is based on the reduction of 3-(4,5-dimethylthiazol-2-yl)-2,5-diphenyltetrazolium bromide to a purple formazan product, was performed to estimate cell viability and growth. To determine the appropriate dose and time, we performed the MTT assay in HepG2, MCF-7, Caco-2, and Vero cell lines. Cell suspensions of […] cell lines were first prepared at densities of 1 × 10^4/mL cells per well of 96-well culture dishes and plated in triplicate. Cells were then incubated with the complexes (2.5, 5, 10, 25, and 50 μM) for 24 and 48 h. After the treatment using the complexes, a 10 μL MTT (Glentham Life Sciences, GC4568) solution was added to each well, followed by incubation for 4 h at 37°C in 5% CO2. The medium was then discarded, and 50 μL DMSO was added to each well to dissolve the formazan crystals. The absorbance was immediately measured at 540 nm using a UV-visible spectrophotometer multiplate reader.

[2] = tested on: Caco-2 (colorectal cancer) cell line; experiment: MTT cell viability assay, Caco-2; assay type: cell-based
Experimental: as §1

[3] = tested on: HepG2 (liver cancer) cell line; experiment: MTT cell viability assay, HepG2; assay type: cell-based
Experimental: as §1

[4] = tested on: Vero (normal kidney) cell line; experiment: MTT cell viability assay, Vero; assay type: cell-based; conditions: for IC50: MTT
Experimental: as §1

[5] = biological target: FS-DNA; experiment: FS-DNA binding by UV-Vis titration; conditions: complex 0–15 μM, 20 mM Tris-HCl/NaCl buffer pH 7.2
Experimental: To investigate these interactions, UV-Vis analyses were performed on complexes Ru1-3 (0–15 μM) in 20 mM Tris-HCl/NaCl buffer (pH 7.2) containing 0.1 mM FS-DNA. The corresponding absorption spectra are provided in the supporting information. Aromatic naphthyl groups are known for their ability to intercalate between DNA base pairs. […] While Ru1 is a cationic complex with a high capacity for hydrogen bonding, potentially facilitating ionic interactions with DNA, its overall interaction was weaker compared to the other complexes.
UV-visible spectroscopy was employed to investigate the interaction between […] and Ru1-3. Different concentrations of Ru1-3 (0–15 μM) were titrated against a fixed concentration of FS-DNA ([…]) to monitor changes in absorbance at 260 nm. The analysis of these titration data allowed for the determination of the binding constant (Kb) using the following equation:(1) 1/A−A0=1/Amax−A0+1/C×1/KbAmax−A0, where A is the absorbance of FS-DNA at a specific concentration with increasing complex concentration, A0 is the absorbance of FS-DNA without complex, Amax is the absorbance of the FS-DNA complex at the final state, and C is the complex concentration.

## Cc1ccc(C(C)C)cc1.Cc1ccc(S(=O)(=O)[N](CCNc2cccc3ccccc23)[Ru][Cl])cc1 [Ru2]
[1]; 24 h exposure
  IC50: 2.81 µM
[1]; 48 h exposure
  IC50: 8.75 µM
[2]; 24 h exposure
  IC50: 1.39 µM
[2]; 48 h exposure
  IC50: 3.39 µM
[3]; 24 h exposure
  IC50: 4.72 µM
[3]; 48 h exposure
  IC50: 8.8 µM
[4]; 50–2.5 μM, 24 h and 48 h
  Cytotoxic activity in Vero healthy cell line: did not manifest any cytotoxic activity at concentrations other than 50 μM
[4]; 24 h exposure
  IC50: 7.8 µM
[4]; 48 h exposure
  IC50: 38.3 µM
[5]
  Binding constant (Kb) with FS-DNA: 22700 M⁻¹
